Our source for the ED30 and ED30 (Table I, column head not given) values is patent US5585504A, “Process of making cox-2 inhibitors having a lactone bridge” (Merck & Co., Inc., priority 1994, dated 1996).

This experiment has as its system carrageenan-induced paw edema. In words: Rat paw edema assay (carrageenan). The format is in vivo, Male Sprague-Dawley rats. As to conditions: po, 1 hr before carrageenan, paw volume 3 hr after. The method, then:
Male Sprague-Dawley rats (150-200g) were fasted overnight and were given po either vehicle (5% tween 80 or 1% methocel) or a test compound at 9-10 am. One hr later, a line was drawn using a permanent marker at the level above the ankle in one hind paw to define the area of the paw to be monitored. The paw volume (VOh) was measured using a plethysmometer (Ugo-Basile,Italy) based on the principle of water displacement. The animals were then injected subplantarly with 50 ul of a 1% carrageenan solution in saline (FMC Corp, Maine) into the paw using an insulin syringe with a 25-gauge needle (i.e. 500 ug carrageenan per paw). Three hr later, the paw volume (V3h) was measured and the increases in paw volume (V3h -VOh) were calculated. The animals were euthanized by CO2 aphyxiation and the absence or presence of stomach lesions scored. Stomach scores were expressed as the sum of total lesions in mm. Paw edema data were compared with the vehicle-control group and percent inhibition calculated taking the values in the control group as 100%. […] All treatment groups were coded to eliminate observer bias.
A general note: In the carrageenan paw model, swelling and tenderness develop within hours.

Like-named read-outs stand apart in the source and are kept apart here.

Consider `CS(=O)(=O)c1ccc(C2=C(c3ccc(F)c(Br)c3)C(=O)OC2)cc1`, for which the ED30 (Rattus norvegicus, 3 h, read-out: ED30 (Table I, column head not given)) was ~1 mg/kg.

The molecule `CS(=O)(=O)c1ccc(C2=C(c3ccc(Cl)c(Cl)c3)C(=O)OC2)cc1` registered an ED30 (Table I, column head not given) of 0.23 mg/kg.

On to `COc1ccc2c(c1)c(CC(=O)O)c(C)n2C(=O)c1ccc(Cl)cc1` [Indomethacin, reference compound], for which the ED30 (read-out: ED30) stood at 1 mg/kg.
